Common to all, as to format: in vivo
The test system of data set [1] is Male SD rats. Nature of the data set: Onset time, last time, palinesthesia time and adverse effects at 2ED50 via the rat tail vein. The conditions noted are these: for Incidence of adverse effect: Muscle tremor / Onset time / Incidence of adverse effect: Anal sphincter dilatation / Incidence of adverse effect: Bucking / Incidence of adverse effect: Hindlimb stiffness / Incidence of adverse effect: Tic of limbs / Incidence of adverse effect: Vomiting: 10 rats per group; for Last time: disappearance to recovery of body-righting reflex; for Palinesthesia tune / Palinesthesia time: recovery to full recovery of body-righting reflex. As to the method:
(§1) Male SD rats (250˜300 g) were used as an experimental animal, and 50% effective dose (ED50) was determined by the sequential method. Three compounds were dissolved in a solvent of DMSO, and etomidate was used as the commercially-available formulation (B BRAUN, Etomidate-Lipuro®, 20 mg/10 mL). Based on the initial dose of 1 mg/kg, other dosages were adjusted as the ratio of 0.8, and the ED50 values of the three compounds and etomidate were determined. Extinction time ≥30 s for the rat body-righting reflex was the positive marker while no disappearance of the righting reflex was considered invalid. Based on the experimental results, four cross-points were formed, and the ED50 values were calculated. […] Then, the respective 2ED50 values of the three compounds and etomidate were taken in an equivalent dose, which were administered via the rat tail vein. The preliminary effects were evaluated in the four rat groups, which were given the three compounds of Formulas (I), (IV), (V) and etomidate, respectively, with 10 rats in each group. […] The last time of the Formula (I) compound and etomidate was 5-6 min, but the last time of the Formulas (IV) and (V) compounds was 10-20 min. […] DMSO had no pharmacological effects, and no adverse effects were observed. The onset time, the last time, and the adverse effects (types, incidence rates) induced by the three compounds and etomidate are shown in the following table:
(§2) Male SD rats (250˜300 g) were used as an experimental animal, and 50% effective dose (ED50) was determined by the sequential method. Hydrochlorides of the three compounds were dissolved in the solvent of normal saline, and etomidate was used as the commercially-available formulation (B BRAUN, Etomidate-Lipuro®, 20 mg/10 mL). The initial dose was 1 mg/kg, and the ratio of dosage variation was 0.8, which was applied in the determination of ED50 values of Formula (I) hydrochloride, Formula (I) hydrobromide, Formula (I) trifluoroacetate, and etomidate. Extinction time (≥30 s) of the rat body-righting reflex was the positive marker while no disappearance of the reflex was considered invalid. Based on the experimental results, four cross-points were formed, and then ED50 values were calculated. […] Then, the respective 2ED50 values of the three compounds and etomidate were taken in an equivalent dose, which were administered via the rat tail vein. The preliminary effects were evaluated in the four rat groups, which were given the three compounds of Formulas (I) hydrochloride, Formula (I) hydrobromide, Formula (I) trifluoroacetate, and etomidate, respectively, with 10 rats in each group. […] Palinesthesia time was in arrange of 5-10 min. During the test period, no significant difference was found in the types and the incidence rates of adverse effects in each group. DMSO had no pharmacological effects, and no adverse effect was found. The onset time, the last time, and the types and the incidence rates of adverse effects induced by the three salt compounds and etomidate are shown in the following table: […]

Data set [2] has as its system self-synthesis of adrenocortical hormone. The data set is described as follows: Increase degree of cortical hormone (cortisol, corticosterone) in blood serum after ACTH stimulation, ELISA. The conditions noted are these: Beagle dogs; for Increase degree of corticosterone / Increase degree of cortisol: 2ED50, dexamethasone baseline, 1 h after ACTH. As to the method:
Male Beagle dogs (10±2 kg) were selected as an experimental animal. After administration, the contents of corticosterone and cortisol in the blood serum of the Beagle dogs were determined by the ELISA kit and the enzyme-labelled instrument. The 20 Beagle dogs were divided into five groups, with four dogs in each group. After respective administration of dexamethasone (0.01 mg/kg), the level of adrenal cortex in the dog body was lowered to the baseline, and those levels of corticosterone and cortisol at this time were used as the base value (baseline). […] After 10 min, ACTH (adrenocortical hormone) was given to stimulate and cause an increased level of cortex in the dog body. One hour after administration of ACTH, both corticosterone and cortisol levels in the blood serum of the Beagle dogs were determined, and the ratio of the peak value to the base value of the cortex levels was calculated. This ratio indicated the increase degree of the cortical hormone. A greater degree indicated a less inhibitory effect of the medicine on the cortical hormone. After administration, compounds of Formulas (I), (IV) and (V), DMSO, and the increase degree of the cortical hormone followed by stimulation of ACTH are shown in the following table:
Male Beagle dogs (10±2 kg) were selected as an experimental animal. After administration, the contents of corticosterone and cortisol in the blood serum of the Beagle dogs were determined by the ELISA kit and the enzyme-labelled instrument. The 20 Beagle dogs were divided into five groups, with four dogs in each group. After respective administration of dexamethasone (0.01 mg/kg), the level of adrenal cortex in the dog body was lowered to the baseline, and the levels of corticosterone and cortisol at this time were used as the baseline. Then, the equivalent doses (2ED50) of the compounds of Formula (I) hydrochloride (3.62 mg/kg), hydrobromide (3.86 mg/kg), trifluoroacetate (4.66 mg/kg), the positive control medicine Etomidate-Lipuro® (0.9 mg/kg), and the equal-volume of solvent DMSO were respectively administrated into the dogs of the five groups. After 10 min, ACTH was given to stimulate and cause the cortex levels increase in the dog body. One hour after administration of ACTH, both the cortical hormone levels were determined, and the ratio of the peak value to the baseline of cortex levels was calculated. This ratio indicated the increase degree of the cortical hormone. A greater degree of increase indicated a less inhibitory effect of the medicine on the cortical hormone. After administrations, the three salts of the Formula (I) compound, DMSO, the increase degree of the cortical hormone followed by stimulation of ACTH are shown in the following table: […]
For orientation: ELISA stands for enzyme-linked immunosorbent assay.

Data set [3] has as its system Male SD rats. Nature of the data set: ED50 by the sequential method, extinction of rat body-righting reflex. The settings on record: etomidate as Etomidate-Lipuro, extinction of body-righting reflex ≥30 s; for ED50: Rattus norvegicus, read-out: 50% effective dose (ED50). As to the method: as §1, §2
Setting [4] is: Example 10, ratio of peak value to base value.
Setting [5] is: Example 9, 2ED50 via tail vein, listed as Formula (I) hydrobromide.
Setting [6] is: Example 11, ratio of peak value to baseline.
Setting [7] is: Example 9, 2ED50 via tail vein, listed as Formula (I) hydrochloride.

Each structure is given as a SMILES string. Where “and” joins values, the source holds several entries; their conditions need not be identical. Equal values may be shown once. Where a name gives a salt, the structure may show the parent alone. Read-outs that look alike come from different tables or passages of the source.

As usually defined, the ED50 is the dose that gives a 50% effect, or the effect in half of the subjects. For the compound `COCCOC(=O)c1cncn1[C@H](C)c1ccccc1` [Compound I], the “sedative-hypnotic and general anesthetic effects (conclusion in words)” value in the data set on Male SD rats [1] (Example 8) was “good sedative-hypnotic and general anesthetic effects”. In the data set on Male SD rats [1] (Example 8, 2ED50 via tail vein), the “Incidence of adverse effect: Muscle tremor” value (“Incidence … Muscle tremor” below) came to 70%, the Onset time entry is listed as “Immediate”, the Last time worked out at 5.8 ± 0.9 min and the Palinesthesia tune came to 4.8 ± 1.3 min. In the data set on Male SD rats [1] (Example 8, 2ED50 via tail vein, listed as Formula (I) compound), the Onset time entry is given as “immediate action”. For the same compound, in data set [2] (setting [4]), the “Increase degree of corticosterone” value stood at 11.46 ± 4.30 and the “Increase degree of cortisol” value is listed as 19.88 ± 19.8. Moreover, in data set [2] (Example 10, after stimulation by ACTH), the “inhibition on cortical hormone (conclusion in words)” value was “obviously reduced when compared with that of the control medicine etomidate”. For the same compound, the ED50 in the data set on Male SD rats [3] (Example 8, compounds in DMSO) stood at 2.1 mg/kg.

For the compound `COCCOC(=O)c1cncn1[C@H](C)c1ccccc1` [Hydrobromide of Formula (I) compound], the “sedative-hypnotic and general anesthetic effects (conclusion in words)” value with Male SD rats [1] (Example 9) is “good sedative-hypnotic and general anesthetic effects”. In the data set with Male SD rats [1] (Example 9, 2ED50 via tail vein), the “Incidence … Muscle tremor” value is reported as 50%, the Onset time entry is recorded as “Immediate”, the Last time came out at 4.6 ± 1.1 min and the Palinesthesia time is on record as 5.8 ± 1.2 min. Moreover, in the data set with Male SD rats [1] (setting [5]), the Onset time result is “immediate action” and the Last time was 5 to 6 min. Moreover, in data set [2] (Example 11), the “cortical hormone increase after stimulation by ACTH (conclusion in words)” value was “lower than that in the blank group of the dogs, but obviously higher than that in the positive medicine etomidate group of the dogs”. In data set [2] (setting [6]), the “Increase degree of corticosterone” value amounted to 12.36 ± 6.65 and the “Increase degree of cortisol” value was determined as 29.14 ± 11.86. Besides, in the data set on Male SD rats [3] (Example 9, salts in normal saline, listed as Formula (I) hydrobromide), the “50% effective dose (ED50)” value was determined as 3.09 mg/kg.

On to `COCCOC(=O)c1cncn1[C@@H](C)c1ccccc1` [Compound IV], for which the “sedative-hypnotic and general anesthetic effects (conclusion in words)” value in the data set on Male SD rats [1] (Example 8) was “lower potency, elongated onset time, extended last time, and increased types and incidence rates of adverse effects”. Besides, in the data set on Male SD rats [1] (Example 8, 2ED50 via tail vein), the “types and incidence rates of the adverse effects (in words)” value was “obviously increased”; the “Incidence of adverse effect: Anal sphincter dilatation” value was “(5/10), 50%;”; the “Incidence of adverse effect: Bucking” value is “Bucking (6/10), 60%”; the “Incidence of adverse effect: Hindlimb stiffness” value is given as 50%;. In the data set on Male SD rats [1] (Example 8, 2ED50 via tail vein), the “Incidence … Muscle tremor” value was 100%;; the “Incidence of adverse effect: Tic of limbs” value is reported as “Tic of limbs (7/10), 70%;”; the “Incidence of adverse effect: Vomiting” value is on record as “Vomiting (7/10), 70%;”; the Onset time was 2.2 ± 0.8 min. In the data set on Male SD rats [1] (Example 8, 2ED50 via tail vein), this compound returned a Last time of 20.3 ± 4.6 min and a Palinesthesia tune of 21.4 ± 2.3 min. For the same compound, the Onset time result in the data set on Male SD rats [1] (Example 8, 2ED50 via tail vein, listed as Formula (IV)) was “a little slower action”. In data set [2] (setting [4]), the “Increase degree of corticosterone” value was determined as 1.19 ± 0.87 and the “Increase degree of cortisol” value is 3.32 ± 2.36. For the same compound, the ED50 in the data set with Male SD rats [3] (Example 8, compounds in DMSO) is 7.46 mg/kg.

Take `COCCOC(=O)c1cncn1C(C)c1ccccc1` (racemic) [Compound V]: the “sedative-hypnotic and general anesthetic effects (conclusion in words)” value in the data set on Male SD rats [1] (Example 8) was “lower potency, elongated onset time, extended last time, and increased types and incidence rates of adverse effects”. Further, in the data set with Male SD rats [1] (Example 8, 2ED50 via tail vein), the “types and incidence rates of the adverse effects (in words)” value is reported as “obviously increased”; the “Incidence of adverse effect: Anal sphincter dilatation” value is “(2/10), 20%;”; the “Incidence of adverse effect: Bucking” value is on record as “Bucking (4/10), 40%”; the “Incidence of adverse effect: Hindlimb stiffness” value is on record as 20%;. For the same compound, in the data set with Male SD rats [1] (Example 8, 2ED50 via tail vein), the “Incidence … Muscle tremor” value was 60%;; the “Incidence of adverse effect: Tic of limbs” value is on record as “Tic of limbs (5/10), 50%;”; the “Incidence of adverse effect: Vomiting” value was “Vomiting (5/10), 50%;”; the Onset time result was “a little slower action and 1.0 ± 0.6 min”. In the data set on Male SD rats [1] (Example 8, 2ED50 via tail vein), the Last time was 10.8 ± 3.5 min and the Palinesthesia tune is reported as 15.1 ± 2.6 min. Moreover, in data set [2] (setting [4]), the “Increase degree of corticosterone” value came out at 3.18 ± 1.15 and the “Increase degree of cortisol” value turned out to be 5.17 ± 2.28. Further, the ED50 with Male SD rats [3] (Example 8, compounds in DMSO) worked out at 10.4 mg/kg.

For `COCCOC(=O)c1cncn1[C@H](C)c1ccccc1` [Hydrochloride of Formula (I) compound], the “sedative-hypnotic and general anesthetic effects (conclusion in words)” value with Male SD rats [1] (Example 9) is “good sedative-hypnotic and general anesthetic effects”. In addition, in the data set with Male SD rats [1] (Example 9, 2ED50 via tail vein), the “Incidence … Muscle tremor” value turned out to be 60%, the Onset time entry is on record as “Immediate”, the Last time turned out to be 5.8 ± 0.7 min and the Palinesthesia time was 5.6 ± 1.8 min. In the data set with Male SD rats [1] (setting [7]), the Onset time entry is recorded as “immediate action” and the Last time was in the range of 5 to 7 min. Further, the “cortical hormone increase after stimulation by ACTH (conclusion in words)” value in data set [2] (Example 11) was “lower than that in the blank group of the dogs, but obviously higher than that in the positive medicine etomidate group of the dogs”. In data set [2] (setting [6]), the “Increase degree of corticosterone” value worked out at 18.14 ± 5.66 and the “Increase degree of cortisol” value is reported as 25.36 ± 14.77. Further, the ED50 with Male SD rats [3] (Example 9, salts in normal saline) was determined as 2.58 mg/kg.

Source of the values: patent US9969695B2, “N-substituted imidazole carboxylic ester chiral compound containing an ether side chain, its preparation and application” (WEST CHINA HOSPITAL, SICHUAN UNIVERSITY, priority 2013, dated 2018).
